{
  "source": "the supplement of paper PMC12463676",
  "about": "“Small-molecule dissolution of stress granules by redox modulation benefits ALS models” (Nature Chemical Biology, 2025);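 also: each temperature applied for 3 min, abundance score taken as mean log2 fold change at the two lowest temperatures, z-score obtained by mean subtraction and division by SD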",
  "key": {"potassium arsenate": {"compound": "O=[As]([O-])(O)O.[K+] [potassium arsenate]", "assay": "thermal stability z-score vs DMSO; higher = more thermally stabilized by treatment", "conditions": "HeLa; arsenate concentration 1 mM", "experimental": "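Cellular thermal proteome profiling in HeLa cells treated with 1 mM arsenate for 1 h (DMSO pretreatment), heated to ten temperatures (37-66.3 °C). Soluble protein was quantified by TMT mass spectrometry relative to DMSO controls; the thermal stability score was transformed to a z-score; mean of n = 3 experiments.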"}, "lipoamide": {"compound": "NC(=O)CCCCC1CCSS1 [lipoamide]", "assay": "thermal stability z-score vs DMSO; higher = more thermally stabilized by treatment", "conditions": "HeLa, lipoamide concentration 100 µM", "experimental": "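Cellular thermal proteome profiling in HeLa cells. Cells were treated with 100 µM lipoamide for 1 h, with or without 1 mM arsenate for a further 1 h, then heated to ten temperatures (37-66.3 °C), and soluble protein was quantified by TMT mass spectrometry relative to 0.1% DMSO controls. The thermal stability score (sum of log2 fold changes minus the abundance score) was transformed to a z-score; mean of n = 3 experiments.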"}, "[1]": {"conditions": "arsenate co-treatment: 1 mM arsenate 1 h"}},
  "data": [
    {"target": "SMAP1 (UniProt Q8IYB5)", "sequence (Q8IYB5 whole entry)": "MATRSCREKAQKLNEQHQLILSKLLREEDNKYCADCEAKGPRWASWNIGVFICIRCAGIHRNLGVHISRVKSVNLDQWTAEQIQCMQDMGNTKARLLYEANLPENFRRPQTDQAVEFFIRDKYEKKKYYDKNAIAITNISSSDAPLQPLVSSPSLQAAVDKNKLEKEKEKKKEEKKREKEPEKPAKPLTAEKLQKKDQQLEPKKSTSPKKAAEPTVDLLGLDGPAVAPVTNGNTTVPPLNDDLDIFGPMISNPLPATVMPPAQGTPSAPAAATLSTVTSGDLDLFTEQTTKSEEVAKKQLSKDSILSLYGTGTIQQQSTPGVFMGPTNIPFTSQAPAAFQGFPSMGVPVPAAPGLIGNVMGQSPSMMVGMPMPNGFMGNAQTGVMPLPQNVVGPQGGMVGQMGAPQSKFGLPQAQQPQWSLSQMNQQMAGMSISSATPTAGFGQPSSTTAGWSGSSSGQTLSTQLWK", "values": [
      {"measurement": "thermal stability z-score", "setting": "potassium arsenate", "value": -0.139},
      {"measurement": "thermal stability z-score", "setting": "lipoamide; [1]", "value": -0.131},
      {"measurement": "thermal stability z-score", "setting": "lipoamide; arsenate co-treatment: none", "value": -0.152}
    ]},
    {"target": "ABCB1 (UniProt P08183)", "sequence (P08183 whole entry, looked up)": "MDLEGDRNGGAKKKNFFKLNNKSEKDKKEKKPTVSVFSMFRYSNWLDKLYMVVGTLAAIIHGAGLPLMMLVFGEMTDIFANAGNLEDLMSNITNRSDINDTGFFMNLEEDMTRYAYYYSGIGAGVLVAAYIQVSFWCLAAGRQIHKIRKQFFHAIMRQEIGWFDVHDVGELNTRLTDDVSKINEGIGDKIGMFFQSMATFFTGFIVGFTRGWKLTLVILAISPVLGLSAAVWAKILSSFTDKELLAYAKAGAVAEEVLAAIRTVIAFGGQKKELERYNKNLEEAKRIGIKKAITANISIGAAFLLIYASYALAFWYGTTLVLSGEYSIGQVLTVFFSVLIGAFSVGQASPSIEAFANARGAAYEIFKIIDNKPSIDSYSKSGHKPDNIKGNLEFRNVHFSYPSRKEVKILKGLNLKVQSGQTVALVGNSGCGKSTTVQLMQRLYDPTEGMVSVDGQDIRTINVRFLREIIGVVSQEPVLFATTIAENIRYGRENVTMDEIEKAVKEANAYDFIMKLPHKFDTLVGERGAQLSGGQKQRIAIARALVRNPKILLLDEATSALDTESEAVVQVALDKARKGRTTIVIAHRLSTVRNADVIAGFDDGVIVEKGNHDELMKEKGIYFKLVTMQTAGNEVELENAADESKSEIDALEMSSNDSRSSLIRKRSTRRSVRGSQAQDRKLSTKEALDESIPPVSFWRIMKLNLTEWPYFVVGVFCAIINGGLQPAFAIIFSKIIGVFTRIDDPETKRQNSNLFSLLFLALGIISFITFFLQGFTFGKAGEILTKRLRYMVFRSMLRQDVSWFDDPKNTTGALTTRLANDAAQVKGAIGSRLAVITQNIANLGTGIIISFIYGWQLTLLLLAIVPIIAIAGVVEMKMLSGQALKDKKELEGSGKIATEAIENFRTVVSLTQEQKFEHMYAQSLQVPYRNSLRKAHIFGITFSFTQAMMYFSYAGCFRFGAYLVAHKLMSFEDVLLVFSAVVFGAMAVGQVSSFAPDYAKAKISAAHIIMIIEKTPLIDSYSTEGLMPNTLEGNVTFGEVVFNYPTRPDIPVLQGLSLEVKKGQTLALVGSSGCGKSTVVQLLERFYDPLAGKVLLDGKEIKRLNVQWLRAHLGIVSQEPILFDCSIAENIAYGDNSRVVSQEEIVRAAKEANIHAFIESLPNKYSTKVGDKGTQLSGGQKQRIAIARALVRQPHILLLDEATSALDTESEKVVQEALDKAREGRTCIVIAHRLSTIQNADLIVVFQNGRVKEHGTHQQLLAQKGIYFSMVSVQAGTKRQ", "values": [
      {"measurement": "thermal stability z-score", "setting": "potassium arsenate", "value": -0.039},
      {"measurement": "thermal stability z-score", "setting": "lipoamide; [1]", "value": 0.00691},
      {"measurement": "thermal stability z-score", "setting": "lipoamide; arsenate co-treatment: none", "value": 0.00658}
    ]},
    {"target": "PURA (UniProt Q00577)", "sequence (Q00577 whole entry)": "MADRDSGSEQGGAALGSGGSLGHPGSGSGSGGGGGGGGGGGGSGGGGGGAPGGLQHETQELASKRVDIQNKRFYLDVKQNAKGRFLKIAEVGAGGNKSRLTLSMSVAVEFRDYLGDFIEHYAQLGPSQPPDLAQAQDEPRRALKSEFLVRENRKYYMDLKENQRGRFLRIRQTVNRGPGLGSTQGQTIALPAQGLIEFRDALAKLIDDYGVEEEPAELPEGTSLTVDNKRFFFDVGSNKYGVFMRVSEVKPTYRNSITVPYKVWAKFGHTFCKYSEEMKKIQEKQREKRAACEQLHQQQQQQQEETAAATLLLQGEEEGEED", "values": [
      {"measurement": "thermal stability z-score", "setting": "potassium arsenate", "value": -0.0389},
      {"measurement": "thermal stability z-score", "setting": "lipoamide; [1]", "value": 0.195},
      {"measurement": "thermal stability z-score", "setting": "lipoamide; arsenate co-treatment: none", "value": -0.028}
    ]},
    {"target": "MACROD1 (UniProt Q9BQ69)", "sequence (Q9BQ69 whole entry)": "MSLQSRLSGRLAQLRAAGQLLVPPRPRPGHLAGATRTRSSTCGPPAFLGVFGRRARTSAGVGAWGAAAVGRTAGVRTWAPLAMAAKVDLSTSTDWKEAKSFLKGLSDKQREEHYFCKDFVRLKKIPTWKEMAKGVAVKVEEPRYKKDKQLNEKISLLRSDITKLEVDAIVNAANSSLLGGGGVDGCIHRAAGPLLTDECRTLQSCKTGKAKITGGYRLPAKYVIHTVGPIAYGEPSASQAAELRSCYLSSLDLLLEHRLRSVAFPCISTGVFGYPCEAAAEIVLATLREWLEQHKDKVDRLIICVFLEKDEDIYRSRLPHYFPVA", "values": [
      {"measurement": "thermal stability z-score", "setting": "potassium arsenate", "value": 1.33},
      {"measurement": "thermal stability z-score", "setting": "lipoamide; [1]", "value": 1.61},
      {"measurement": "thermal stability z-score", "setting": "lipoamide; arsenate co-treatment: none", "value": 0.262}
    ]},
    {"target": "CD3EAP (UniProt O15446)", "values": [
      {"measurement": "thermal stability z-score", "setting": "potassium arsenate", "value": -3.13},
      {"measurement": "thermal stability z-score", "setting": "lipoamide; [1]", "value": 0.354},
      {"measurement": "thermal stability z-score", "setting": "lipoamide; arsenate co-treatment: none", "value": -0.286}
    ]},
    {"target": "PWP1 (UniProt Q13610)", "values": [
      {"measurement": "thermal stability z-score", "setting": "potassium arsenate", "value": -2.52},
      {"measurement": "thermal stability z-score", "setting": "lipoamide; [1]", "value": -0.0751},
      {"measurement": "thermal stability z-score", "setting": "lipoamide; arsenate co-treatment: none", "value": -0.259}
    ]},
    {"target": "ACTR6 (UniProt Q9GZN1)", "values": [
      {"measurement": "thermal stability z-score", "setting": "potassium arsenate", "value": -0.13},
      {"measurement": "thermal stability z-score", "setting": "lipoamide; [1]", "value": 0.151},
      {"measurement": "thermal stability z-score", "setting": "lipoamide; arsenate co-treatment: none", "value": -0.182}
    ]},
    {"target": "TTC27 (UniProt Q6P3X3)", "values": [
      {"measurement": "thermal stability z-score", "setting": "potassium arsenate", "value": 0.24},
      {"measurement": "thermal stability z-score", "setting": "lipoamide; [1]", "value": -0.686},
      {"measurement": "thermal stability z-score", "setting": "lipoamide; arsenate co-treatment: none", "value": -0.257}
    ]},
    {"target": "PCSK9 (UniProt Q8NBP7)", "values": [
      {"measurement": "thermal stability z-score", "setting": "potassium arsenate", "value": 0.0738},
      {"measurement": "thermal stability z-score", "setting": "lipoamide; [1]", "value": -0.578},
      {"measurement": "thermal stability z-score", "setting": "lipoamide; arsenate co-treatment: none", "value": -0.462}
    ]},
    {"target": "ARMC8 (UniProt Q8IUR7)", "values": [
      {"measurement": "thermal stability z-score", "setting": "potassium arsenate", "value": -0.668},
      {"measurement": "thermal stability z-score", "setting": "lipoamide; [1]", "value": -0.0708},
      {"measurement": "thermal stability z-score", "setting": "lipoamide; arsenate co-treatment: none", "value": -0.238}
    ]},
    {"target": "SRSF9 (UniProt Q13242)", "sequence (Q13242 whole entry)": "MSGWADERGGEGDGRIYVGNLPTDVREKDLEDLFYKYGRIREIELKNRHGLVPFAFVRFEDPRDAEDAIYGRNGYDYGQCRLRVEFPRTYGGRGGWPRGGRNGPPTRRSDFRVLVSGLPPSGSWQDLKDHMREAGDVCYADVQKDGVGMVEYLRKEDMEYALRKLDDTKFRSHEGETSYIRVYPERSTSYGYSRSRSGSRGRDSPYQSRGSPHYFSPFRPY", "values": [
      {"measurement": "thermal stability z-score", "setting": "potassium arsenate", "value": 0.0934},
      {"measurement": "thermal stability z-score", "setting": "lipoamide; [1]", "value": 2.14},
      {"measurement": "thermal stability z-score", "setting": "lipoamide; arsenate co-treatment: none", "value": 0.947}
    ]},
    {"target": "RNF149 (UniProt Q8NC42)", "sequence (Q8NC42 whole entry)": "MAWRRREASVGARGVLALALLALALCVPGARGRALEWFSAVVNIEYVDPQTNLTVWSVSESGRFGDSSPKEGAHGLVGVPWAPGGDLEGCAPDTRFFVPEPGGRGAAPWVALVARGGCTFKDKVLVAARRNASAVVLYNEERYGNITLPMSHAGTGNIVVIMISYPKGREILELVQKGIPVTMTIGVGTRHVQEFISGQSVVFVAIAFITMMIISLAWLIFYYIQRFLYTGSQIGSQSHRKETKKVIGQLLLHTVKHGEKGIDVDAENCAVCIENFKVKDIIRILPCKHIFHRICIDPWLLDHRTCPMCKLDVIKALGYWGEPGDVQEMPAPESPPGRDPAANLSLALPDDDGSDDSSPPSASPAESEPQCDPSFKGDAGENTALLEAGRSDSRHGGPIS", "values": [
      {"measurement": "thermal stability z-score", "setting": "potassium arsenate", "value": -0.556},
      {"measurement": "thermal stability z-score", "setting": "lipoamide; [1]", "value": -0.375},
      {"measurement": "thermal stability z-score", "setting": "lipoamide; arsenate co-treatment: none", "value": -0.859}
    ]},
    {"target": "VPS72 (UniProt Q15906)", "values": [
      {"measurement": "thermal stability z-score", "setting": "potassium arsenate", "value": -2.49},
      {"measurement": "thermal stability z-score", "setting": "lipoamide; [1]", "value": 1.96},
      {"measurement": "thermal stability z-score", "setting": "lipoamide; arsenate co-treatment: none", "value": -0.00979}
    ]},
    {"target": "PTDSS1 (UniProt P48651)", "values": [
      {"measurement": "thermal stability z-score", "setting": "potassium arsenate", "value": -0.375},
      {"measurement": "thermal stability z-score", "setting": "lipoamide; [1]", "value": -1.63},
      {"measurement": "thermal stability z-score", "setting": "lipoamide; arsenate co-treatment: none", "value": -1.23}
    ]},
    {"target": "RNF121 (UniProt Q9H920)", "sequence (Q9H920 whole entry)": "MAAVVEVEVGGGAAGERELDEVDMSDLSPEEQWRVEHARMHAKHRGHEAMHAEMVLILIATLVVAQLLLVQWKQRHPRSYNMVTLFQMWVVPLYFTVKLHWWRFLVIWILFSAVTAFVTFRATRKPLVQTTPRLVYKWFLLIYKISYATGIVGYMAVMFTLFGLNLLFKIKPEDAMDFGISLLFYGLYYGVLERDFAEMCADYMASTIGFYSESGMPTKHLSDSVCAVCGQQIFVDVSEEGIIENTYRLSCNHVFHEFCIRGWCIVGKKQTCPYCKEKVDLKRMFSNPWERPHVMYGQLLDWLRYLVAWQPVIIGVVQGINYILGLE", "values": [
      {"measurement": "thermal stability z-score", "setting": "potassium arsenate", "value": -1.09},
      {"measurement": "thermal stability z-score", "setting": "lipoamide; [1]", "value": -1},
      {"measurement": "thermal stability z-score", "setting": "lipoamide; arsenate co-treatment: none", "value": -0.693}
    ]},
    {"target": "SLC29A1 (UniProt Q99808)", "values": [
      {"measurement": "thermal stability z-score", "setting": "potassium arsenate", "value": 0.277},
      {"measurement": "thermal stability z-score", "setting": "lipoamide; [1]", "value": 0.272},
      {"measurement": "thermal stability z-score", "setting": "lipoamide; arsenate co-treatment: none", "value": 0.818}
    ]},
    {"target": "MPP1 (UniProt Q00013)", "sequence (Q00013 whole entry)": "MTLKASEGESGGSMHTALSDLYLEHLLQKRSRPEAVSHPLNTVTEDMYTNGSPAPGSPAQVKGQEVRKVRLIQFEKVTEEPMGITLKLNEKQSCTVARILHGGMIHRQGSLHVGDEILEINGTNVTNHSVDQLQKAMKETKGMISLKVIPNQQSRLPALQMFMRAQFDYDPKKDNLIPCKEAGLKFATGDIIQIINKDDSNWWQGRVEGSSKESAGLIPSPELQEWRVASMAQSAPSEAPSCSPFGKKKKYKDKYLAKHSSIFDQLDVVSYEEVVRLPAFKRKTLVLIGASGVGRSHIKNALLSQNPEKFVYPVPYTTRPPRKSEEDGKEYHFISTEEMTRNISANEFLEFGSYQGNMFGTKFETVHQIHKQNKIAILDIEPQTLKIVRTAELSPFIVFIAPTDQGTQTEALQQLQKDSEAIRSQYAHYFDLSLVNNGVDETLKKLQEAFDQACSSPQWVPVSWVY", "values": [
      {"measurement": "thermal stability z-score", "setting": "potassium arsenate", "value": -0.163},
      {"measurement": "thermal stability z-score", "setting": "lipoamide; [1]", "value": -0.0663},
      {"measurement": "thermal stability z-score", "setting": "lipoamide; arsenate co-treatment: none", "value": -0.0569}
    ]},
    {"target": "LCMT2 (UniProt O60294)", "values": [
      {"measurement": "thermal stability z-score", "setting": "potassium arsenate", "value": -0.332},
      {"measurement": "thermal stability z-score", "setting": "lipoamide; [1]", "value": -0.107},
      {"measurement": "thermal stability z-score", "setting": "lipoamide; arsenate co-treatment: none", "value": -0.78}
    ]},
    {"target": "CBX8 (UniProt Q9HC52)", "values": [
      {"measurement": "thermal stability z-score", "setting": "potassium arsenate", "value": -0.0579},
      {"measurement": "thermal stability z-score", "setting": "lipoamide; [1]", "value": 0.035},
      {"measurement": "thermal stability z-score", "setting": "lipoamide; arsenate co-treatment: none", "value": 0.14}
    ]},
    {"target": "TOMM22 (UniProt Q9NS69)", "sequence (Q9NS69 whole entry)": "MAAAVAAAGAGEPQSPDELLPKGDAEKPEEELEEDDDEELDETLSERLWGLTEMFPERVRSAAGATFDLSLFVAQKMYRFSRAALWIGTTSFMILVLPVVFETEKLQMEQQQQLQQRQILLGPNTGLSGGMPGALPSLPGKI", "values": [
      {"measurement": "thermal stability z-score", "setting": "potassium arsenate", "value": 0.468},
      {"measurement": "thermal stability z-score", "setting": "lipoamide; [1]", "value": 0.165},
      {"measurement": "thermal stability z-score", "setting": "lipoamide; arsenate co-treatment: none", "value": 0.384}
    ]},
    {"target": "CDR2L (UniProt Q86X02)", "values": [
      {"measurement": "thermal stability z-score", "setting": "potassium arsenate", "value": -0.419},
      {"measurement": "thermal stability z-score", "setting": "lipoamide; [1]", "value": 0.891},
      {"measurement": "thermal stability z-score", "setting": "lipoamide; arsenate co-treatment: none", "value": 0.86}
    ]},
    {"target": "FAS (UniProt P25445)", "sequence (P25445 whole entry)": "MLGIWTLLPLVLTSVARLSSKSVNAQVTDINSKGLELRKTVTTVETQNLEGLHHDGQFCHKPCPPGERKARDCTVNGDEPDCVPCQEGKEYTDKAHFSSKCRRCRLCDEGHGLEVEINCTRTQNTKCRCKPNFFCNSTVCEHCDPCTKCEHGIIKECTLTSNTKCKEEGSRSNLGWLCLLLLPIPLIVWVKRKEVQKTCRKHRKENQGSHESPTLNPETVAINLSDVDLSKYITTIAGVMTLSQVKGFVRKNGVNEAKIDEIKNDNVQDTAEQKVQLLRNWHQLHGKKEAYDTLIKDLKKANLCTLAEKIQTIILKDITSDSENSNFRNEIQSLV", "values": [
      {"measurement": "thermal stability z-score", "setting": "potassium arsenate", "value": 0.539},
      {"measurement": "thermal stability z-score", "setting": "lipoamide; [1]", "value": 0.392},
      {"measurement": "thermal stability z-score", "setting": "lipoamide; arsenate co-treatment: none", "value": 0.673}
    ]},
    {"target": "DICER1 (UniProt Q9UPY3)", "values": [
      {"measurement": "thermal stability z-score", "setting": "potassium arsenate", "value": -0.398},
      {"measurement": "thermal stability z-score", "setting": "lipoamide; [1]", "value": 0.656},
      {"measurement": "thermal stability z-score", "setting": "lipoamide; arsenate co-treatment: none", "value": 0.00487}
    ]},
    {"target": "BAG3 (UniProt O95817)", "values": [
      {"measurement": "thermal stability z-score", "setting": "potassium arsenate", "value": 0.236},
      {"measurement": "thermal stability z-score", "setting": "lipoamide; [1]", "value": -0.145},
      {"measurement": "thermal stability z-score", "setting": "lipoamide; arsenate co-treatment: none", "value": 0.303}
    ]},
    {"target": "CARNMT1 (UniProt Q8N4J0)", "values": [
      {"measurement": "thermal stability z-score", "setting": "potassium arsenate", "value": 0.59},
      {"measurement": "thermal stability z-score", "setting": "lipoamide; [1]", "value": -0.0735},
      {"measurement": "thermal stability z-score", "setting": "lipoamide; arsenate co-treatment: none", "value": -0.179}
    ]},
    {"target": "GLCE (UniProt O94923)", "values": [
      {"measurement": "thermal stability z-score", "setting": "potassium arsenate", "value": 0.231},
      {"measurement": "thermal stability z-score", "setting": "lipoamide; [1]", "value": 0.386},
      {"measurement": "thermal stability z-score", "setting": "lipoamide; arsenate co-treatment: none", "value": 0.177}
    ]},
    {"target": "SPDL1 (UniProt Q96EA4)", "values": [
      {"measurement": "thermal stability z-score", "setting": "potassium arsenate", "value": 1.2},
      {"measurement": "thermal stability z-score", "setting": "lipoamide; [1]", "value": 0.746},
      {"measurement": "thermal stability z-score", "setting": "lipoamide; arsenate co-treatment: none", "value": 0.706}
    ]},
    {"target": "MAPKAPK3 (UniProt Q16644)", "sequence (Q16644 whole entry, looked up)": "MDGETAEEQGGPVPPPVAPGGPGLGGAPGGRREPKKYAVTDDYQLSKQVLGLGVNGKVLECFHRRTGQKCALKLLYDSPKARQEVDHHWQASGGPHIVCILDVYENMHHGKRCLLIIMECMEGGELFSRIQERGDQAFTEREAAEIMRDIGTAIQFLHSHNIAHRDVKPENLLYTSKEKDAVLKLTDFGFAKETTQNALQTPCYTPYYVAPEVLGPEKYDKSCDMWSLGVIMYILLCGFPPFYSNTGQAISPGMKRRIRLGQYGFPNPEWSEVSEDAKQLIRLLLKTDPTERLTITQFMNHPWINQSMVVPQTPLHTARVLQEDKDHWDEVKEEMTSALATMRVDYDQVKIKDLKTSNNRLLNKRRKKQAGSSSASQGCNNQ", "values": [
      {"measurement": "thermal stability z-score", "setting": "potassium arsenate", "value": -0.508},
      {"measurement": "thermal stability z-score", "setting": "lipoamide; [1]", "value": -0.203},
      {"measurement": "thermal stability z-score", "setting": "lipoamide; arsenate co-treatment: none", "value": -0.362}
    ]},
    {"target": "CAPN2 (UniProt P17655)", "values": [
      {"measurement": "thermal stability z-score", "setting": "potassium arsenate", "value": 0.109},
      {"measurement": "thermal stability z-score", "setting": "lipoamide; [1]", "value": 0.345},
      {"measurement": "thermal stability z-score", "setting": "lipoamide; arsenate co-treatment: none", "value": 0.208}
    ]},
    {"target": "DRAM2 (UniProt Q6UX65)", "sequence (Q6UX65 whole entry)": "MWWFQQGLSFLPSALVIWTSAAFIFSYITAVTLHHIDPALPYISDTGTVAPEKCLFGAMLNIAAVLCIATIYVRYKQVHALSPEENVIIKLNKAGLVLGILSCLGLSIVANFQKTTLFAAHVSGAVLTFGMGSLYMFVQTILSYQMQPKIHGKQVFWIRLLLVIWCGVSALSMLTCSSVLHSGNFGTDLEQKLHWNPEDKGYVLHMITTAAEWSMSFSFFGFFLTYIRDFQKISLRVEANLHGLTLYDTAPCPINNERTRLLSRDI", "values": [
      {"measurement": "thermal stability z-score", "setting": "potassium arsenate", "value": 1.26},
      {"measurement": "thermal stability z-score", "setting": "lipoamide; [1]", "value": 0.00378},
      {"measurement": "thermal stability z-score", "setting": "lipoamide; arsenate co-treatment: none", "value": -0.247}
    ]}
  ]
}
